Reference: ChEMBL document CHEMBL1201862, “PubChem BioAssay data set” (2004)
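Step 1: Grow cells in 96-well plates. Step 2: Expose to compound for 48 hours at 5 concentrations. Step 3: Interpolate endpoints linearly; if unreached, use highest concentration. The concentration for 50% growth inhibition is given as GI50.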 The source made the active and inactive calls. Cut-off read from the data, not from the text of the source: active = GI50 up to about 1.1 µM and inactive = higher.

How the values were obtained:
Experiment in all cases: inhibition of tumour cell growth, NCI panel, 48 h
IGROV-1 = system: IGROV-1
EKVX = system: EKVX
COLO 205 = system: COLO 205
NCI-H23 = system: NCI-H23
HL-60 = system: HL-60
MDA-MB-435 = system: MDA-MB-435
SF-295 = system: SF-295
SN12C = system: SN12C
NCI-H226 = system: NCI-H226
A498 = system: A498
HCT-116 = system: HCT-116
CAKI-1 = system: CAKI-1
SK-MEL-2 = system: SK-MEL-2
Hs-578T = system: Hs-578T
MDA-N = system: MDA-N
UACC-257 = system: UACC-257
NCI/ADR-RES = system: NCI/ADR-RES
LOX IMVI = system: LOX IMVI
SK-MEL-5 = system: SK-MEL-5
SF-539 = system: SF-539
HOP-62 = system: HOP-62
M14 = system: M14
ACHN = system: ACHN
Malme-3M = system: Malme-3M
T47D = system: T47D
MDA-MB-231 = system: MDA-MB-231
OVCAR-8 = system: OVCAR-8
HOP-92 = system: HOP-92
786-0 = system: 786-0
SK-MEL-28 = system: SK-MEL-28
TK-10 = system: TK-10
DU-145 = system: DU-145
UACC-62 = system: UACC-62
SK-OV-3 = system: SK-OV-3
A549 = system: A549
SR = system: SR
MOLT-4 = system: MOLT-4
SF-268 = system: SF-268
OVCAR-4 = system: OVCAR-4
CCRF-CEM = system: CCRF-CEM
KM12 = system: KM12
U-251 = system: U-251
SW-620 = system: SW-620
OVCAR-3 = system: OVCAR-3
RXF 393 = system: RXF 393
HCT-15 = system: HCT-15
HCC 2998 = system: HCC 2998
SNB-75 = system: SNB-75
K562 = system: K562
PC-3 = system: PC-3
NCI-H522 = system: NCI-H522
HT-29 = system: HT-29
SNB-19 = system: SNB-19
MCF7 = system: MCF7
NCI-H460 = system: NCI-H460
OVCAR-5 = system: OVCAR-5
UO-31 = system: UO-31

COc1ccc(/C=C2\C=Cc3ccccc32)cc1OC
GI50 (IGROV-1): 73.8 µM (inactive) | GI50 (EKVX): 22.5 µM (inactive) | GI50 (COLO 205): > 100 µM (inactive) | GI50 (NCI-H23): 24 µM (inactive) | GI50 (HL-60): 10.9 µM (inactive) | GI50 (MDA-MB-435): > 100 µM (inactive) | GI50 (SF-295): > 100 µM (inactive) | GI50 (SN12C): 60 µM (inactive) | GI50 (NCI-H226): 28.4 µM (inactive) | GI50 (A498): 39.4 µM (inactive) | GI50 (HCT-116): 91.2 µM (inactive) | GI50 (CAKI-1): > 100 µM (inactive) | GI50 (SK-MEL-2): 72.1 µM (inactive) | GI50 (Hs-578T): 29.9 µM (inactive) | GI50 (MDA-N): > 100 µM (inactive) | GI50 (UACC-257): > 100 µM (inactive) | GI50 (NCI/ADR-RES): > 100 µM (inactive) | GI50 (LOX IMVI): > 100 µM (inactive) | GI50 (SK-MEL-5): 43.2 µM (inactive) | GI50 (SF-539): > 100 µM (inactive) | GI50 (HOP-62): > 100 µM (inactive) | GI50 (M14): > 100 µM (inactive) | GI50 (ACHN): 78.2 µM (inactive) | GI50 (Malme-3M): > 100 µM (inactive) | GI50 (T47D): 47.3 µM (inactive) | GI50 (MDA-MB-231): 78.3 µM (inactive) | GI50 (OVCAR-8): > 100 µM (inactive) | GI50 (HOP-92): 6.49 µM (inactive) | GI50 (786-0): 57.5 µM (inactive) | GI50 (SK-MEL-28): > 100 µM (inactive) | GI50 (TK-10): > 100 µM (inactive) | GI50 (DU-145): > 100 µM (inactive) | GI50 (UACC-62): 23.1 µM (inactive) | GI50 (SK-OV-3): 76.2 µM (inactive) | GI50 (A549): > 100 µM (inactive) | GI50 (SR): 50.9 µM (inactive) | GI50 (MOLT-4): 38.6 µM (inactive) | GI50 (SF-268): > 100 µM (inactive) | GI50 (OVCAR-4): 29.9 µM (inactive) | GI50 (CCRF-CEM): 57.1 µM (inactive) | GI50 (KM12): > 100 µM (inactive) | GI50 (U-251): 76 µM (inactive) | GI50 (SW-620): > 100 µM (inactive) | GI50 (OVCAR-3): > 100 µM (inactive) | GI50 (RXF 393): 50.4 µM (inactive) | GI50 (HCT-15): > 100 µM | GI50 (HCC 2998): > 100 µM (inactive) | GI50 (SNB-75): 20.6 µM (inactive) | GI50 (K562): 29.8 µM (inactive) | GI50 (PC-3): 46.5 µM (inactive) | GI50 (NCI-H522): 30.4 µM (inactive) | GI50 (HT-29): 88.3 µM (inactive) | GI50 (SNB-19): > 100 µM (inactive) | GI50 (MCF7): > 100 µM (inactive) | GI50 (NCI-H460): > 100 µM (inactive) | GI50 (OVCAR-5): > 100 µM (inactive)

CCCCCCCCCCCC1=NCCN1
GI50 (COLO 205): 19.4 µM (inactive) | GI50 (NCI-H23): 93.8 µM (inactive) | GI50 (MDA-MB-435): > 100 µM (inactive) | GI50 (SF-295): 87.7 µM (inactive) | GI50 (SN12C): 77.6 µM (inactive) | GI50 (NCI-H226): > 100 µM (inactive) | GI50 (A498): 0.557 µM (active) | GI50 (HCT-116): 56.6 µM (inactive) | GI50 (Hs-578T): 83.9 µM (inactive) | GI50 (MDA-N): > 100 µM (inactive) | GI50 (UACC-257): > 100 µM (inactive) | GI50 (NCI/ADR-RES): > 100 µM (inactive) | GI50 (LOX IMVI): 3.75 µM (inactive) | GI50 (SK-MEL-5): 38.6 µM (inactive) | GI50 (M14): > 100 µM (inactive) | GI50 (ACHN): > 100 µM (inactive) | GI50 (T47D): 73.3 µM (inactive) | GI50 (MDA-MB-231): 23.8 µM (inactive) | GI50 (OVCAR-8): > 100 µM (inactive) | GI50 (HOP-92): 94 µM (inactive) | GI50 (SK-MEL-28): > 100 µM (inactive) | GI50 (TK-10): > 100 µM (inactive) | GI50 (DU-145): 74.1 µM (inactive) | GI50 (UO-31): 32.1 µM (inactive) | GI50 (SK-OV-3): > 100 µM (inactive) | GI50 (A549): 90.6 µM (inactive) | GI50 (SR): 19.9 µM (inactive) | GI50 (MOLT-4): 17.9 µM (inactive) | GI50 (SF-268): > 100 µM (inactive) | GI50 (OVCAR-4): 14.8 µM (inactive) | GI50 (CCRF-CEM): 22.9 µM (inactive) | GI50 (KM12): 63.8 µM (inactive) | GI50 (U-251): 49.9 µM (inactive) | GI50 (SW-620): 34.7 µM (inactive) | GI50 (OVCAR-3): 95.3 µM (inactive) | GI50 (RXF 393): > 100 µM (inactive) | GI50 (HCT-15): 15.1 µM | GI50 (HCC 2998): 19.5 µM (inactive) | GI50 (SNB-75): 32 µM (inactive) | GI50 (K562): 39.6 µM (inactive) | GI50 (PC-3): 19.4 µM (inactive) | GI50 (NCI-H522): 26.5 µM (inactive) | GI50 (HT-29): > 100 µM (inactive) | GI50 (SNB-19): > 100 µM (inactive) | GI50 (MCF7): 38.9 µM (inactive) | GI50 (NCI-H460): 30.1 µM (inactive)

COc1cc(S(=O)(=O)Nc2nc(-c3ccc(N4C(=O)CSC4c4cccs4)cc3)cs2)ccc1Cl (configuration not stated)
GI50 (IGROV-1): 34.3 µM (inactive) | GI50 (COLO 205): > 100 µM (inactive) | GI50 (NCI-H23): 33.2 µM (inactive) | GI50 (HL-60): 23.2 µM (inactive) | GI50 (MDA-MB-435): > 100 µM (inactive) | GI50 (SF-295): > 100 µM (inactive) | GI50 (SN12C): 25.6 µM (inactive) | GI50 (NCI-H226): > 100 µM (inactive) | GI50 (A498): > 100 µM (inactive) | GI50 (HCT-116): 45.2 µM (inactive) | GI50 (CAKI-1): > 100 µM (inactive) | GI50 (SK-MEL-2): 57.5 µM (inactive) | GI50 (Hs-578T): 97.1 µM (inactive) | GI50 (MDA-N): 43.4 µM (inactive) | GI50 (UACC-257): 71 µM (inactive) | GI50 (NCI/ADR-RES): > 100 µM (inactive) | GI50 (LOX IMVI): 21.8 µM (inactive) | GI50 (SK-MEL-5): > 100 µM (inactive) | GI50 (SF-539): 49.7 µM (inactive) | GI50 (HOP-62): > 100 µM (inactive) | GI50 (M14): > 100 µM (inactive) | GI50 (ACHN): > 100 µM (inactive) | GI50 (Malme-3M): > 100 µM (inactive) | GI50 (T47D): 36.8 µM (inactive) | GI50 (MDA-MB-231): > 100 µM (inactive) | GI50 (OVCAR-8): 33 µM (inactive) | GI50 (HOP-92): 36.6 µM (inactive) | GI50 (786-0): 81.1 µM (inactive) | GI50 (SK-MEL-28): > 100 µM (inactive) | GI50 (TK-10): > 100 µM (inactive) | GI50 (DU-145): > 100 µM (inactive) | GI50 (UACC-62): 83.6 µM (inactive) | GI50 (UO-31): 22.6 µM (inactive) | GI50 (SK-OV-3): > 100 µM (inactive) | GI50 (A549): > 100 µM (inactive) | GI50 (SR): 28.9 µM (inactive) | GI50 (MOLT-4): 22.1 µM (inactive) | GI50 (SF-268): 37.6 µM (inactive) | GI50 (OVCAR-4): 31.3 µM (inactive) | GI50 (CCRF-CEM): 17.9 µM (inactive) | GI50 (KM12): 75.5 µM (inactive) | GI50 (U-251): > 100 µM (inactive) | GI50 (SW-620): 40.8 µM (inactive) | GI50 (OVCAR-3): 33.7 µM (inactive) | GI50 (RXF 393): 24.1 µM (inactive) | GI50 (HCT-15): 22.8 µM | GI50 (SNB-75): > 100 µM (inactive) | GI50 (K562): 31 µM (inactive) | GI50 (PC-3): 88.3 µM (inactive) | GI50 (NCI-H522): 30.9 µM (inactive) | GI50 (HT-29): > 100 µM (inactive) | GI50 (SNB-19): > 100 µM (inactive) | GI50 (MCF7): 43.5 µM (inactive) | GI50 (NCI-H460): > 100 µM (inactive) | GI50 (OVCAR-5): > 100 µM (inactive)
